Patent publication US9457093B2, “Solid dispersions of a ERB2 (HER2) inhibitor” (Array BioPharma Inc., priority 2011, dated 2016)

Assay: Dissolution testing at pH 6.5 in phosphate buffer at 37° C.
Type: physicochemical
Conditions: pH 6.5 phosphate buffer, about 240 minutes
Experimental: Dissolution testing was performed at a pH of 6.5 in phosphate buffer. The solid dispersion was suspended in H2O and added directly to the buffer solution at 37° C. The dissolution profile was collected over a period of about 240 minutes. The results are in FIG. 2.
Dissolution testing was performed at a pH of 6.5 in phosphate buffer. The solid dispersion was suspended in H2O and added directly to the buffer solution at 37° C. The dissolution profile was collected over a period of about 240 minutes. The results are in FIG. 3.
Dissolution testing was performed at a pH of 6.5 in phosphate buffer. The solid dispersion was suspended in H2O and added directly to the buffer solution at 37° C. The dissolution profile was collected over a period of about 240 minutes. The results are in FIG. 4.
Dissolution testing was performed at a pH of 6.5 in phosphate buffer. The solid dispersion was suspended in H2O and added directly to the buffer solution at 37° C. The dissolution profile was collected over a period of about 240 minutes. The results are in FIG. 5.
Dissolution testing was performed at a pH of 6.5 in phosphate buffer. The solid dispersion was suspended in H2O and added directly to the buffer solution at 37° C. The dissolution profile was collected over a period of about 240 minutes. The results are in FIG. 6.
Dissolution testing was performed at a pH of 6.5 in phosphate buffer. […]

AUC for the free drug species: 5490 ng·h/mL
Cmax for the free drug species: 440 ng/mL
SMILES: Cc1cc(Nc2ncnc3ccc(NC4=NC(C)(C)CO4)cc23)ccc1Oc1ccn2ncnc2c1 [Example 12, N4-(4-([1,2,4]triazolo[1,5-α]pyridin-7-yloxy)-3-methylphenyl)-N6-(4,4-dimethyl-4,5-dihydrooxazol-2-yl)quinazoline-4,6-diamine freebase hemi-ethanolate]
